The record followed here is patent publication EP0127076A2, “Histargin, a microbiological process for its preparation, its use as a medicament, and the strain Streptomyces roseoviridis having the ability to produce histargin” (MICROBIAL CHEMISTRY RESEARCH FOUNDATION, priority 1983, dated 1984).

One test concerns Wistar rats. Description: potentiation of morphine-induced analgesia, tail-flick technique in morphine-unresponsive rats. Format: in vivo.
A further test relates to enkephalinase B. Put plainly: enkephalinase B inhibition (tritiated methionine enkephalin hydrolysis). Format: biochemical, crab-eating monkeys. The settings on record: concentration of 100 µg/ml, pH 7.0. As for the experimental part: Enkephalinase B was obtained by homogenizing the brains of crab-eating monkeys, fractionating the homogenate, and purifying soluble fractions in accordance with the method of Hazato et al. (Biochemical and Biophysical Research Communications, Vol. 105, No. 2, pp. 470-475, 1982). The inhibitory activity of histargin against enkephalinase B was measured by the method of Hasato et al. described in the same reference.
Ten µmol of methionine enkephalin (Tyr-Gly-Gly-Phe-Met) having the terminal tyrosine partially tritiated was used as a substrate. This substrate was hydrolyzed with enkephalinase B in 100 µl of […] Tris-hydrochloric acid buffer solution (pH 7.0). The segment, Tyr-Gly, resulting from hydrolysis was separated using a column of Porapak Q (a product of Whatman), and determined quantitatively based on its radioactivity. The results obtained when the above reaction was carried out in the presence of histargin were compared with those obtained when the reaction was performed in the absence of histargin. Based on the comparison, the enkephalinase B-inhibiting activity of histragin was evaluated.

A further test concerns Slc-CDF1 mice. Put plainly: cell-mediated immunity: delayed-type hypersensitivity (D.T.H.) to sheep red blood cell, footpad swelling. Format: in vivo. The settings on record: normal mice, 5, 0.5, 0,05 and 0.005 mg/kg once intraperitoneally; statement on Table 1 (image). The procedure:
This effect was investigated using as its index the degree of delayed- type hypersensitivity (D.T.H.) to sheep red blood cell (SRBC) injectd intravenously as an antigen (see J. Exp. Med. 139, 1529-1539, 1974).
A suspension of 10^5 SRBCs in 0.05 ml of physiological saline solution was injected intravenously into Slc-CDF1 mice (female, 9 weeks old). Simultaneously, histargin monohydrate in doses of 5, 0.5, 0,05 and 0.005 mg/kg was administerd once intraperitoneally as a solution dissolved in physiological saline solution.
Four days after admnistration, a suspension of 10^8 SRBCs in 0.05 ml of physiological saline solution was injected subcutaneously to the footpads to induce D.T.H. Twenty-four hours after the subcutaneous injection, footpad swellings (increases in the foot thicknesses) were measured with a caliper. The mean footpad swelling in control animals receiving SRBCs and physiological saline solution but without the test compound was designated as C, which was set at 100 %• The mean footpad swelling in animals treated with SRBCs, physiological saline solution, and the test compound was designated as T. The ratio of T to C was calculated to evaluate the effect of the test compound to potentiate cell-mediated immunity.

The target of the next test is T1, carboxypeptidase B (Sus scrofa, UniProt P09955).
T1 construct: purified carboxypeptidase B (a product of Boehringer-Mannheim obtained from the pancreas of pigs); purchased Boehringer-Mannheim; host or cells: pig pancreas
T1 sequence (P09955 111-416): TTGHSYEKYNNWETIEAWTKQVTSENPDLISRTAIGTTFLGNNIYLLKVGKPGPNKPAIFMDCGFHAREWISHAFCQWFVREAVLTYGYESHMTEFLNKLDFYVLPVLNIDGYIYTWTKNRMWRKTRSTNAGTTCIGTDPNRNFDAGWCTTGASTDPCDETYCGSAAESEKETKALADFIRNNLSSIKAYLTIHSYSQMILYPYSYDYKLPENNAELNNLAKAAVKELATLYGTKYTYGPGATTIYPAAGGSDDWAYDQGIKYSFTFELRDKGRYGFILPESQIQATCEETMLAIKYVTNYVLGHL
Put plainly: anti-carboxypeptidase B activity (hippuryl-L-lysine substrate, cyanuric chloride colour reaction). Format: biochemical. The settings on record: purified carboxypeptidase B from the pancreas of pigs, 37°C, pH 8.0; read-out: 50 % inhibition (IC50) against carboxypeptidase B (converted). As for the experimental part: Histargin in the cultivation and purification steps was traced by measuring anti-carboxypeptidase B activity. Anti-carboxypeptidase B activity was measured in the following way according to an improved method based on the angiotensin I transferase activity determination method described in M.Hayakari et al., "Analytical Biochemistry," 84, 361-369, 1978.
A mixed solution was prepared by adding 0.25 ml of 0.05M Tris-hydrochloric acid buffer solution (pH 8.0) and 0.15 ml of a solution containing a histargin sample to 0.05 ml of 0.05M hippuryl-L-lysine (a product of Peptide Institute). The mixed solution was heated for 3 minutes at 37°C, and 0.05 ml of an aqueous solution of 1 µg/ml of purified carboxypeptidase B (a product of Boehringer-Mannheim obtained from the pancreas of pigs) was added to the mixed solution. To the resulting mixture was added 0.03 ml of 1N sodium hydroxide to terminate the reaction. Fifteen minutes later, 2 ml of a 1 % methyl cellosolve solution of cyanuric chloride was added for a color reaction. After the mixture was allowed to stand for 15 minutes at room temperature, the absorbance (a) at 382 nm was measured. Separately, there was measured the blank absorbance (b) of the same reaction mixture except that the histargin sample was not contained. The percent inhibition against carboxypeptidase B was calculated from the equation [(b - a)/b] x 100.

Molecules are shown by their SMILES.

In the case of `CC(C)C[C@H](NC(=O)[C@@H](O)[C@H](N)Cc1ccccc1)C(=O)O` [Bestatin], the “Potentiation of morphine-induced analgesia (%)” value (from here on “Potentiation … (%)”) with Wistar rats (250 mg/kg, for comparison, Wistar rats) is recorded as 19.9%.

Turning to `CN1CC[C@]23c4c5ccc(O)c4O[C@H]2[C@@H](O)C=C[C@H]3[C@H]1C5` [Morphine], the “Potentiation … (%)” value worked out at 0% with Wistar rats (morphine only 0.5 mg/kg (control group)), 28.4% in the test with Wistar rats (morphine only 2 mg/kg) and 35.1% in the test with Wistar rats (morphine only 3 mg/kg).

For `N=C(N)NCCCC(NCCNC(Cc1cnc[nH]1)C(=O)O)C(=O)O` (centres unmarked) [histargin monohydrate, histargin], the “inhibition against enkephalinase B” value in the test on enkephalinase B was 92%. For the same molecule, the “Potentiation … (%)” value in the test on Wistar rats (100 mg/kg intraperitoneally + 0.5 mg/kg morphine, morphine-unresponsive Wistar rats) was 33.8%. Also, the “effect on cell-mediated immunity (D.T.H. footpad swelling, T/C)” value with Slc-CDF1 mice is reported as “potentiates cell-mediated immunity”. At carboxypeptidase B, the IC50 was 33.8 µM.

Usually IC50 stands for the concentration that inhibits the measured activity by half.
